Key:
[1] = system: Erysiphe graminis f sp. tritici; experiment: Test G: wheat powdery mildew, preventive spray on wheat seedlings; details: 100 = 100% disease control; for Test G disease control rating: 10 ppm test solution, 0 = no control relative to controls; for Test G rating (% disease control): 10 ppm, wheat powdery mildew, 0 = no control
Zymoseptoria tritici = experiment: Test E: wheat leaf blotch, preventive spray on wheat seedlings; details: 100 = 100% disease control; for Test E disease control rating: 10 ppm test solution, 0 = no control relative to controls; for Test E rating (% disease control): 10 ppm, wheat leaf blotch, 0 = no control
Text: (§1) General protocol for preparing test solutions for Tests A-G: the test compounds were first dissolved in acetone in an amount equal to 3% of the final volume and then suspended at the desired concentration (in ppm) in acetone and purified water (50/50 mix by volume) containing 250 ppm of the surfactant PEG400 (polyhydric alcohol esters). The resulting test suspensions were then used in Tests A-G. Compounds were sprayed at a concentration of 50 ppm (*) or 10 ppm to the point of run-off on the test plants, the equivalent of a rate of 200 g/ha or 40 g/ha, respectively.
The test solution was sprayed to the point of run-off on wheat seedlings. The following day the seedlings were inoculated with a spore suspension of Zymoseptoria tritici (the causal agent of wheat leaf blotch) and incubated in a saturated atmosphere at 24° C. for 48 h, and then moved to a growth chamber at 20° C. for 17 days, after which time visual disease ratings were made.
(§2) Compounds with an asterisks (*) were applied at a concentration of 50 ppm, otherwise test solutions were applied at 10 ppm.

Botrytis cinerea = experiment: Test B: gray mold, preventive spray on tomato seedlings; details: 100 = 100% disease control; for Test B disease control rating: 10 ppm test solution, 0 = no control relative to controls; for Test B rating (% disease control): 10 ppm, gray mold on tomato, 0 = no control
Stagonospora nodorum = experiment: Test D: wheat glume blotch, preventive spray on wheat seedlings; details: 100 = 100% disease control; for Test D disease control rating: 10 ppm test solution, 0 = no control relative to controls; for Test D rating (% disease control): 10 ppm, wheat glume blotch, 0 = no control
Text: as §1
The test solution was sprayed to the point of run-off on wheat seedlings. The following day the seedlings were inoculated with a spore suspension of Stagonospora nodorum (also known as Septoria nodorum; the causal agent of wheat glume blotch) and incubated in a saturated atmosphere at 20° C. for 48 h, and then moved to a growth chamber at 20° C. for 6 days, after which time visual disease ratings were made.
as §2

[2] = system: Puccinia recondita f sp. tritici; experiment: Test F: wheat leaf rust, preventive spray on wheat seedlings; details: 100 = 100% disease control; for Test F disease control rating: 10 ppm test solution, 0 = no control relative to controls; for Test F rating (% disease control): 10 ppm, wheat leaf rust, 0 = no control

Row | SMILES | Test G disease control rating [1] [%] | Test E disease control rating (Zymoseptoria tritici) [%] | Test B disease control rating (Botrytis cinerea) [%] | Test D disease control rating (Stagonospora nodorum) [%] | Test F disease control rating [2] [%] | Test G rating (% disease control) [1] [%] | Test E rating (% disease control) (Zymoseptoria tritici) [%] | Test B rating (% disease control) (Botrytis cinerea) [%] | Test D rating (% disease control) (Stagonospora nodorum) [%] | Test F rating (% disease control) [2] [%]
1 | CC(C)(C)CC(O)(Cn1cncn1)C1=NOC(Cc2ccc(C(F)(F)F)cc2)C1 (single isomer, unassigned) [Compound 227] | 100 | 29 | 0 | 73 | 100 |  |  |  |  | 
2 | CC(C)(C)C(O)(Cn1cncn1)C1=NOC(COc2ccc(C(F)(F)F)cc2)C1 (single isomer, unassigned) [Compound 88] |  |  |  |  |  | 99 | 76 | 0 | 99 | 100
3 | CC(C)(C)C(O)(Cn1cncn1)C1=NOC(COc2ccc(OC(F)(F)F)cc2)C1 (single isomer, unassigned) [Compound 24] |  |  |  |  |  | 100 | 0 | 37 | 99 | 100
4 | CC#CC(O)(Cn1cncn1)C1=NOC(c2ccc(Cl)cc2)C1 (stereo not drawn) [Compound 104, α-[5-(4-chlorophenyl)-4,5-dihydro-3-isoxazolyl]-α-1-propyn-1-yl-1H-1,2,4-triazole-1-ethanol] |  |  |  |  |  | 93 | 0 | 0 | 100 | 97
5 | CC(C)(C)C(O)(Cn1cncn1)C1=NOC(CO[Si](C)(C)C(C)(C)C)C1 (single isomer, unassigned) [Compound 9] |  |  |  |  |  | 64 | 0 | 0 | 0 | 0
6 | OC(Cn1cncn1)(C1=NOC(c2ccc(Cl)cc2)C1)c1ccc(F)cc1 (single isomer, unassigned) [Compound 160] |  |  |  |  |  | 100 | 11 | 75 | 99 | 100
7 | CC(C)(C)C(O)(Cn1cncn1)C1=NOC(Cc2ccccc2)C1 (single isomer, unassigned) [Compound 87] |  |  |  |  |  | 98 | 1 | 83 | 99 | 99
8 | CC(C)(C)C(O)(Cn1cncn1)C1=NOC(COc2cccc(Br)c2)C1 (single isomer, unassigned) [Compound 232] | 100 | 41 | 98 | 99 | 100 |  |  |  |  | 
9 | OC(Cn1cncn1)(C1=NOC(COc2ccccc2)C1)c1ccc(Cl)cc1 (single isomer, unassigned) [Compound 144] |  |  |  |  |  | 99 | 17 | 0 | 99 | 100
10 | OC(Cn1cncn1)(C1=NOC(Cc2ccc(Cl)cc2)C1)c1ccc(Cl)cc1 (single isomer, unassigned) [Compound 201] |  |  |  |  |  | 96 | 1 | 0 | 50 | 100
11 | OC(Cn1cncn1)(C1=NOC(Cc2ccc(C(F)(F)F)cc2)C1)c1ccc(Cl)cc1 (single isomer, unassigned) [Compound 203] |  |  |  |  |  | 99 | 16 | 0 | 55 | 100
12 | CC(C)(C)C(O)(Cn1cncn1)C1=NOC(CSc2ccccc2)C1 (single isomer, unassigned) [Compound 73] |  |  |  |  |  | 56 | 0 | 25 | 62 | 9
13 | OC(Cn1cncn1)(C1=NOC(c2ccc(F)cc2)C1)c1ccc(Cl)cc1 (single isomer, unassigned) [Compound 158] |  |  |  |  |  | 100 | 3 | 0 | 96 | 100
14 | CS(=O)(=O)c1ccc(C2CC(C(O)(Cn3cncn3)c3ccc(Cl)cc3)=NO2)cc1 (single isomer, unassigned) [Compound 114] |  |  |  |  |  | 56 | 39 | 0 | 0 | 36
15 | OC(Cn1cncn1)(C1=NOC(Cc2ccc(F)cc2)C1)c1ccc(Cl)cc1 (single isomer, unassigned) [Compound 200] |  |  |  |  |  | 99 | 16 | 0 | 11 | 99
16 | CC(C)(C)CC(O)(Cn1cncn1)C1=NOC(c2ccc(Cl)cc2)C1 (single isomer, unassigned) [Compound 138] |  |  |  |  |  | 100 | 0 | 17 | 100 | 100
17 | OC(Cn1cncn1)(C1=NOC(COc2ccc(Cl)cn2)C1)c1ccc(Cl)cc1 (single isomer, unassigned) [Compound 165] |  |  |  |  |  | 100 | 5 | 0 | 72 | 99
18 | CC(C)(C)CC(O)(Cn1cncn1)C1=NOC(COc2ccc(Cl)cc2)C1 (single isomer, unassigned) [Compound 172] |  |  |  |  |  | 99 | 4 | 0 | 100 | 100
19 | OC(Cn1cncn1)(C1=NOC(c2ccc(-n3cc(Br)cn3)cc2)C1)c1ccc(Cl)cc1 (single isomer, unassigned) [Compound 6] |  |  |  |  |  | 91 | 0 | 0 | 0 | 0
20 | OC(Cn1cncn1)(C1=NOC(c2ccc(-n3cc(Br)cn3)cc2)C1)c1ccc(Cl)cc1 (single isomer, unassigned) [Compound 5] |  |  |  |  |  | 100 | 48 | 0 | 40 | 100
21 | OC(Cn1cncn1)(C1=NOC(c2ccc(Cl)cc2)C1)c1ccc(C(F)(F)F)cc1 (single isomer, unassigned) [Compound 106] |  |  |  |  |  | 89 | 0 | 0 | 0 | 72
22 | CC(C)(C)C(O)(Cn1cncn1)C1=NOC(COc2ccc(Br)cc2)C1 (single isomer, unassigned) [Compound 182] |  |  |  |  |  | 100 | 96 | 99 | 99 | 100
23 | OC(Cn1cncn1)(C1=NOC(c2cnccn2)C1)c1ccc(Cl)cc1 (single isomer, unassigned) [Compound 157] |  |  |  |  |  | 26 | 0 | 0 | 0 | 0
24 | CCC(C)(C)C(O)(Cn1cncn1)C1=NOC(Cc2ccc(C(F)(F)F)cc2)C1 (single isomer, unassigned) [Compound 19] |  |  |  |  |  | 100 | 10 | 0 | 89 | 100
25 | OC(Cn1cncn1)(C1=NOC(Cc2ccc(Cl)cc2)C1)c1ccc(Cl)cc1 (single isomer, unassigned) [Compound 199] |  |  |  |  |  | 100 | 0 | 0 | 86 | 100
26 | OC(Cn1cncn1)(C1=NOC(c2ccc(Cl)cc2)C1)c1ccccc1F (single isomer, unassigned) [Compound 135] |  |  |  |  |  | 81 | 1 | 0 | 69 | 98
27 | CC(C)(C)C(O)(Cn1cncn1)C1=NOC(Cc2ccc(Br)cc2)C1 (single isomer, unassigned) [Compound 53] |  |  |  |  |  | 99 | 20 | 70 | 99 | 100
28 | CC(C)(C)C(O)(Cn1cncn1)C1=NOC(CCc2ccc(Cl)cc2)C1 (single isomer, unassigned) [Compound 16] |  |  |  |  |  | 99 | 8 | 32 | 100 | 100

Source: patent US20160242416A1, “FUNGICIDAL ISOXAZOLINE CARBINOLS” (E I DU PONT DE NEMOURS AND COMPANY, priority 2015, published 2016)
